Results taken from patent US6699834B1, “Method for treating cancer” (University of Maryland Biotechnology Institute, priority 1997, dated 2004).

Tests used:
[1] = tested on: HIV-1; conditions: for HIV in vitro Inhibition: inhibition of HIV-1 replication in vitro (HIV-1 strains and HIV-1 primary isolates)
From the text: To prepare HIV infected cells for the in vitro assay of hCG preparations and β-hCG peptides and derivatives, primary PBMCs, macrophages, and CD4^+ T cells isolated from peripheral blood and the H9 human T cell line, were acutely or chronically infected with 8 different HIV-1 strains: 4 cell line adapted viruses, namely the macrophage tropic Ba-L strain (Gartner et al., 1986, Science 233:215-219) and the CD4^+ T cell tropic MN, RF, and IIIB strains (10^5 TCID50/ml) (Popovic et al., 1984, Science […]; Gallo et al.; 1984, Science 224:500-503); 2 isolates, Ju1083 and G3, from Nigerian AIDS patients passed once in a CD4^+ T cell line (Sub-T1); and 2 primary (“clinical”) isolates from AIDS patients from Trinidad which were never passed in any cell line and were used at a titer of 7.5×10^4TCID50/ml. In all experiments; HIV1 (10^5 TCID50/ml) was added to the cells(10^6 cells/ml) for a 2 hour incubation after which the virus infected cells were washed with 10 ml phosphate buffered saline (PBS) three times to eliminate extra cellular virus. The test inhibitor, i.e. the hCG or β-hCG peptide preparation was then added and the cells were incubated with the test inhibiter for 9 to 10 days with serial sampling. Cultures were assayed for p24 antigen on days 3 to 10.
Peptides of the α- and β-subunits (0.05 to 50 nmoles/ml), native α chain preparation, and various crude preparations of the native hCG heterodimer (0.01 to 1,000 IU) and the native β-hCG subunit (100 to 1,000 μg) were tested for effects on HIV-1 replication in acutely infected cells-by measuring change in viral antigen levels in response to the above noted preparations (FIGS. 4A-D and Table 3).
The fractions were then tested for anti-HIV, anti-KS and pro-hematopoietic activities in vitro. To assay for inhibition of HIV-1 replication in vitro, the HIV-1 […] viral strain was used to infect PBMCs and PM-1 cells (derived from the HUT-78 T-cell lymphoma cell line) at 10^3 TCID50/ml as described in detail herein.

[2] = tested on: KS Y-1 and KS-SLK cells; assay: Kaposi's Sarcoma clonogenic assay in cultured cells; assay type: cell-based, human; conditions: inhibition of Kaposi's Sarcoma cell growth in vitro in cultured cells
Experimental: Briefly, the KS Y-1 cells were obtained from mononuclear cells isolated from pleural effusion of an AIDS patient with KS in the lungs. After the depletion of T lymphocytes, monocytes/macrophages and fibroblasts using monoclonal antibodies against CD2, CD3, CD4, CD8, CD10 and CD14 membrane antigens and baby rabbit complement, the cells were cultured in the absence of exogenous growth factors to select for transformed cells. […] Clonogenic assays were performed by seeding the KS Y-1 or KS-SLK cells in methylcellulose (0.8%, v/v), incubating the cells for 10 days in the presence or absence of the hCC, β-hCG or β-hCG peptide preparations and then counting the number of well-formed colonies of triplicate wells formed after seeding with 5×10^4 cells.
To assay for activity against Kaposi's sarcoma cell growth in vitro, the clonogenic assay described herein was used with the KS Y-1 and KS-SLK cultured Kaposi's Sarcoma cell lines,.

[3] = tested on: hematopoietic progenitor cells; assay: Hematopoietic progenitor clonogenic assays (CFU-GEMM, BFU-e, CFU-GM); assay type: cell-based, human; conditions: relative increase of hematopoietic colony cell number; hCG preparations 200 IU/ml, subunits and peptides 100 μg/ml
Experimental: The effect of hCG preparations and peptides was assayed on hematopoietic progenitor cells in vitro: Hematopoietic progenitor cells (2×10^5 cell/ml) were isolated from normal bone marrow and cord blood and seeded in methylcellulose. […] The hCG preparations were administered at 200 IU/ml and the β- and α-subunits and peptides were administered at 100 μg/ml. The native commercial preparation of hCG (APL™, Wyeth Ayerst) was pre-tested for anti-HIV and anti-KS activities. Aggregates containing more than 50 cells after 10 days of culture were counted as colonies.

Compound | HIV in vitro Inhibition [1] | KS in vitro [2] | inhibition of HIV-1 infection/replication in vitro (in words) [1] | Pro-hematopoiesis in vitro Enhancement [3]
14. 1-20: β-hCG amino acids 1-20 (SKEPLRPRCRPINATLAVEK; UniProt P0DN86 21-40, looked up, fragment) | − (“−” represents less than 10% effect) | − (“−” represents less than 10% effect) | – | –
17. 46-65: β-hCG amino acids 46-65 (SEQ ID NO:34) (QGVLPALPQVVCNYRDVRFE) | + (“+” represents greater than 15% effect) | + (“+” represents greater than 15% effect) | inhibited HIV-1 replication | –
18. 91-112: β-hCG amino acids 91-112 (ALCRRSTTDCGGPKDHPLTCDD; UniProt P0DN86 111-132, looked up, fragment) | – | − (“−” represents less than 10% effect) | – | − (“−” represents less than 10% effect)
19. 93-100: β-hCG amino acids 93-100 (CRRSTTDC; UniProt P0DN86 113-120, looked up, fragment) | − (“−” represents less than 10% effect) | − (“−” represents less than 10% effect) | – | –
20. 110-145: β-hCG amino acids 110-145 (CDDPRFQDSSSSKAPPPSLPSPSRLPGPSDTPILPQ; UniProt P0DN86 130-165, looked up, fragment) | – | − (“−” represents less than 10% effect) | – | − (“−” represents less than 10% effect)
24. 34-39: β-hCG amino acids 34-39 (CAGYCP; UniProt P0DN86 54-59, looked up, fragment) | − (“−” represents less than 10% effect) | − (“−” represents less than 10% effect) | – | –
25. 123-145: β-hCG amino acids 123-145 | − (“−” represents less than 10% effect) | − (“−” represents less than 10% effect) | – | –
27. 100-110: β-hCG amino acids 100-110 (CGGPKDHPLTC; UniProt P0DN86 120-130, looked up, fragment) | − (“−” represents less than 10% effect) | − (“−” represents less than 10% effect) | – | –
28. 113-132: β-hCG amino acids 113-132 (PRFQDSSSSKAPPPSLPSPS; UniProt P0DN86 133-152, looked up, fragment) | – | − (“−” represents less than 10% effect) | – | − (“−” represents less than 10% effect)
34. 88-92: α-hCG amino acids 88-92 (YYHKS; UniProt P01215 112-116, looked up, fragment) | − (“−” represents less than 10% effect) | − (“−” represents less than 10% effect) | little or no effect | –
38. 41-61: α-hCG amino acids 41-61 (LRSKKTMLVQKNVTSESTCCV; UniProt P01215 65-85, looked up, fragment) | − (“−” represents less than 10% effect) | − (“−” represents less than 10% effect) | – | –
39. 57-76: α-hCG amino acids 57-76 (STCCVAKSYNRVTVMGGFKV; UniProt P01215 81-100, looked up, fragment) | − (“−” represents less than 10% effect) | − (“−” represents less than 10% effect) | – | –
Oc1ccccc1 [phenol, reference compound] | – | – | no effect on HIV-1 replication | –
